Measurements as given in patent publication US20240199881A1, “METAL COMPLEX DYES FOR INKJET PRINTING” (Videojet Technologies Inc., priority 2021, published 2024).

Assay: Saturated solubility testing in butanone and ethanol
Format: physicochemical
Conditions: for Solubility (w/w) in butanone: solvent butanone; for Solubility (w/w) in ethanol: solvent ethanol

Solubility (w/w) in butanone | Solubility (w/w) in ethanol | Compound
6% (w/w) | <1% (w/w) | O=[N+]([O-])c1ccc2c(c1)/N=N/c1c(ccc3ccccc13)[O][Fe]1([O]2)[O]c2ccc([N+](=O)[O-])cc2/N=N/c2c(ccc3ccccc23)[O]1 [Example 59]
≥20% (w/w) | <2% (w/w) | CCC(C)(C)c1cc2c(c([N+](=O)[O-])c1)[O][Fe]1([O]c3ccc4ccccc4c3/N=N/2)[O]c2ccc3ccccc3c2/N=N/c2cc(C(C)(C)CC)cc([N+](=O)[O-])c2[O]1 [Example 60]

Compound | Solubility (w/w) in butanone | Solubility (w/w) in ethanol
O=[N+]([O-])c1ccc2c(c1)[O][Fe]1([O]c3cc([N+](=O)[O-])ccc3/N=N/c3c(ccc4ccccc34)[O]1)[O]c1ccc3ccccc3c1/N=N/2 [Example 29] | 50% (w/w) | <1% (w/w)
